Measurements taken from PMC9103351, “Effects of the Bark Resin Extract of Garcinia nigrolineata on Chronic Stress-Induced Memory Deficit in Mice Model and the In Vitro Monoamine Oxidases and β-Amyloid Aggregation Inhibitory Activities of Its Prenylated Xanthone Constituents” (Molecules, 2022).
Like-named read-outs stand apart in the source and are kept apart here.

Columns and labels:
Aβ1-42 = molecular target: T1, Aβ1-42 (Homo sapiens, UniProt P05067); experiment: Thioflavin-T assay of Aβ1-42 self-aggregation inhibition; type: biochemical; conditions: for % Inhibition of Aβ Aggregation: Aβ1-42 10 µM, 24 h at 37 °C, Th-T fluorescence; for percent of self-aggregation of Aβ-(1-42): without any compound taken as 100%
T1 construct: Aβ1-42 was dissolved in a 50 mM phosphate buffer (pH 7.4)
Experimental: A thioflavin-T (Th-T) assay was used to evaluate the ability of 1–6 and 8–10, isolated from GN bark resin extract, to inhibit Aβ42 aggregation. The presence of Aβ plaques in the brain appears to be related to cognitive decline and neurodegeneration.
The Thioflavin-T assay used to investigate the Aβ1-42 self-aggregation activity was performed as previously described. Aβ1-42 was dissolved in a 50 mM phosphate buffer (pH 7.4) to obtain a […] stock solution. […] In black and opaque 96-well plates, 2 µL of each compound were added at a concentration of 100 µM. Then, in each well, Aβ1-42 solution was added to give a final concentration of 10 µM and mixed thoroughly. Covered plates were left in the dark for 24 h at 37 °C without agitation. After incubation, each well was loaded with 190 µL of […] ThT in 50 mM glycine/NaOH buffer (pH 8.0), and fluorescence intensities were measured at 446 nm and 490 nm for excitation and emission, respectively. The percent inhibition of each compound was calculated and reported.

recombinant human MAO-A = molecular target: T2, recombinant human MAO-A (Homo sapiens, UniProt P21397); experiment: Inhibitory activity on recombinant human MAO-A (kynuramine, fluorescence); type: biochemical; conditions: for Si MAO-A: selective index from Ki values (Ki = IC50/(1 + [S]/Km)), Si = Ki (MAO-B)/Ki (MAO-A)
T2 construct: purchased Sigma-Aldrich
T2 sequence (P21397 1-527): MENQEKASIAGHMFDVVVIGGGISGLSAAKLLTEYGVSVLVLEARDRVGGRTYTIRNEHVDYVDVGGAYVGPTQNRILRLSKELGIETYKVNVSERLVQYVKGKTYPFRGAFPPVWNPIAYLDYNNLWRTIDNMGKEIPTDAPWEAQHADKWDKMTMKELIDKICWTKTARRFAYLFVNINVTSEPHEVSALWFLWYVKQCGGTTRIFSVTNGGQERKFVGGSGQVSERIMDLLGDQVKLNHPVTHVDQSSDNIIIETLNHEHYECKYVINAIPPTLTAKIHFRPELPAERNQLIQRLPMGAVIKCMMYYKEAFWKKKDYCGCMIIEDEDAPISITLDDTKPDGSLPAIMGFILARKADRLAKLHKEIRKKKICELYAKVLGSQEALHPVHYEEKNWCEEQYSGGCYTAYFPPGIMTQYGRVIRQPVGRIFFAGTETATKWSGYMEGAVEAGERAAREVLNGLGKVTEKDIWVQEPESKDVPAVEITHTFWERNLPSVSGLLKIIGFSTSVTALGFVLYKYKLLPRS
Experimental: (§1) The inhibitory activity assays of the isolated compound with recombinant human MAO-A and MAO-B (Sigma-Aldrich, St. Louis, MO, USA) were carried out with some modification as described recently by. In brief, 1–6 and 8–10 were first dissolved in DMSO to obtain a stock solution with a concentration of 25 mM. The activity was determined by serial dilution of each concentration of the compounds. For the MAO-A inhibitor assay, 4.5 µL of kynuramine (Sigma-Aldrich, St. Louis, MO, USA) were mixed with 234.75 µL of potassium phosphate buffer (100 mM, pH 7.4, made isotonic with KCl, 20.2 mM). Then, 3 µL of kynuramine were mixed with 236.25 µL of potassium phosphate buffer (pH 7.4) for the MAO-B inhibitor assay. The reaction was stopped by adding 400 µL of 2N NaOH and 1000 µL of water. The fluorescence of 4-hydroxyquinoline (Sigma-Aldrich, St. Louis, MO, USA), a by-product of this reaction, was measured with the excitation wavelength at 310 nm and the emission wavelength at 400 nm. The initial rates of MAO-catalyzed kynuramine oxidation were plotted versus the logarithm of the inhibitor concentrations and reported as IC50 values by using the Prism software package (GraphPad Software, version 5, San Diego, CA, USA) to evaluate quantitative. IC50 values were converted to Ki values by using the equation Ki = IC50/(1 + [S]/Km).

recombinant human MAO-B = molecular target: T3, recombinant human MAO-B (Homo sapiens, UniProt P27338); experiment: Inhibitory activity on recombinant human MAO-B (kynuramine, fluorescence); type: biochemical; conditions: for isoenzyme selectivity by selectivity index (MAO-B): from Si values; for IC50: recombinant human MAO-B, kynuramine substrate
T3 construct: purchased Sigma-Aldrich
T3 sequence (P27338 1-520): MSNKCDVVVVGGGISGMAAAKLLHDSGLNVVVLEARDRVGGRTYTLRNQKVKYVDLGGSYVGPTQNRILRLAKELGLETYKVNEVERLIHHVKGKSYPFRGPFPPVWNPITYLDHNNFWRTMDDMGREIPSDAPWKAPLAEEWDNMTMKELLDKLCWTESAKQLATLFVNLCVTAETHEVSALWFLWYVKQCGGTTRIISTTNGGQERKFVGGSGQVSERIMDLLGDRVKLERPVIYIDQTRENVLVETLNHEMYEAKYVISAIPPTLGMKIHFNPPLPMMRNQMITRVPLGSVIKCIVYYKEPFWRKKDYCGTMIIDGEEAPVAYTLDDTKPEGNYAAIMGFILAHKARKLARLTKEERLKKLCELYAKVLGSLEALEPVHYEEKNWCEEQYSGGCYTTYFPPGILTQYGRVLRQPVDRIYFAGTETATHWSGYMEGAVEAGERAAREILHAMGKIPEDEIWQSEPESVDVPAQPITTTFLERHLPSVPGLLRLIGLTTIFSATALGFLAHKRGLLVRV
Experimental: as §1

Aβ (1-42) = test system: Aβ (1-42); set-up: method as in PMID 27038926; conditions: Aβ (1-42) incubated with compound 6 days at 37 °C; cited from earlier work
[1] = recombinant human MAO-A, kynuramine substrate, read-out: IC50 MAO-A
[2] = selective index from Ki values (Ki = IC50/(1 + [S]/Km)), Si = Ki (MAO-B)/Ki (MAO-A)

T1 sequence (P05067 672-713 limits assumed): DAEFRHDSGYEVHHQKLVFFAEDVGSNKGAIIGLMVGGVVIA

% Inhibition of Aβ Aggregation (Aβ1-42; compound 100 µM)	percent of self-aggregation of Aβ-(1-42) (Aβ1-42; compound 100 µM)	IC50 (recombinant human MAO-A; [1])	Si MAO-A (recombinant human MAO-A)	isoenzyme selectivity by selectivity index (MAO-B) (recombinant human MAO-B)	IC50 (recombinant human MAO-B)	Si MAO-B (recombinant human MAO-B; [2])	% Inhibition of Aβ Aggregation (Aβ1-42; positive control at 5 µM)	percent of self-aggregation of Aβ-(1-42) (Aβ1-42; positive control at 5 µM)	SMILES	amyloid aggregation inhibition (Aβ (1-42))	IC50 (recombinant human MAO-A)	Si MAO-B (recombinant human MAO-B)
46.79 ± 5.46%	53.21 ± 5.46%	100.2 ± 0.35 µM	3.407	selectivity index on MAO-B	17.99 ± 0.11 µM	0.294	–	–	COc1cc2oc3c(OC)c(O)ccc3c(=O)c2c(O)c1CC=C(C)C [Compound 1, cowagarcinone C]	–	–	–
58.56 ± 3.28%	41.44 ± 3.28%	119.8 ± 0.75 µM	0.307	–	238.5 ± 2.03 µM	3.254	–	–	COc1cc2c(=O)c3c(O)c(C/C=C(\C)CCC=C(C)C)c(O)cc3oc2cc1O [Compound 2, cowaxanthone]	–	–	–
Not detected	–	40.21 ± 0.35 µM	1.579	selectivity index on MAO-B	15.6 ± 0.26 µM	0.6333	–	–	COc1cc2oc3cc(O)c(CC=C(C)C)c(O)c3c(=O)c2c(CC=C(C)C)c1OC [Compound 4, cowaxanthone B]	–	–	–
Not detected	–	69.92 ± 0.06 µM	558.273	selectivity index on MAO-B	0.07 ± 0.01 µM	0.00179	–	–	COc1c(O)cc2oc3cc4c(c(O)c3c(=O)c2c1C/C=C(\C)CCC=C(C)C)C=CC(C)(C)O4 [Compound 6, fuscaxanthone A]	–	–	–
Not detected.	–	100.5 ± 0.44 µM	<0.153	–	> 400 µM	0.6522	–	–	COc1c(O)cc2oc3cc4occc4c(O)c3c(=O)c2c1C/C=C(\C)CCC=C(C)C [Compound 8, xanthochymusxanthone A]	–	–	–
Not detected	–	25.4 ± 0.63 µM	38.705	selectivity index on MAO-B	0.4 ± 0.01 µM	0.0256	–	–	COc1c(O)c(CC=C(C)C)c2oc3cc(O)c(CC=C(C)C)c(O)c3c(=O)c2c1CC=C(C)C [Compound 9, 7-O-methylgarcinone E]	–	–	–
Not detected	–	3.58 ± 0.02 µM	<0.005	–	> 400 µM	183.168	–	–	COc1c(O)c(CC=C(C)C)c2oc3cc(O)c(CC=C(C)C)c(O)c3c(=O)c2c1C/C=C(\C)CCC=C(C)C [Compound 10, cowagarcinone A]	–	–	–
–	–	–	–	–	–	–	51.73 ± 2.89%	48.27 ± 2.89%	COc1cc(/C=C/C(=O)CC(=O)/C=C/c2ccc(O)c(OC)c2)ccc1O [Curcumin, reference compound]	–	–	–

SMILES	% Inhibition of Aβ Aggregation (Aβ1-42; compound 100 µM)	percent of self-aggregation of Aβ-(1-42) (Aβ1-42; compound 100 µM)	IC50 (recombinant human MAO-A; [1])	Si MAO-A (recombinant human MAO-A)	isoenzyme selectivity by selectivity index (MAO-B) (recombinant human MAO-B)	IC50 (recombinant human MAO-B)	Si MAO-B (recombinant human MAO-B; [2])	% Inhibition of Aβ Aggregation (Aβ1-42; positive control at 5 µM)	percent of self-aggregation of Aβ-(1-42) (Aβ1-42; positive control at 5 µM)	amyloid aggregation inhibition (Aβ (1-42))	IC50 (recombinant human MAO-A)	Si MAO-B (recombinant human MAO-B)
COc1c(O)cc2oc3cc(O)c(CC=C(C)C)c(O)c3c(=O)c2c1CC=C(C)C [Compound 3, α-mangostin]	Not detected	–	79.81 ± 0.5 µM	1.218	selectivity index on MAO-B	40.1 ± 0.89 µM	0.821	–	–	inhibiting amyloid aggregation	–	–
COc1c(O)cc2oc3cc(O)c(CC=C(C)C)c(O)c3c(=O)c2c1C/C=C(\C)CCC=C(C)C [Compound 5, cowanin]	Not detected	–	–	0.266	–	16.3 ± 1.44 µM	–	–	–	–	7.1 ± 0.03 µM	3.762
